Test results published in patent US12662707B2, “MYC amplification drives resistance to pan-RAS inhibitors in pancreatic cancer” (The Trustees of Columbia University in the City of New York, priority 2024, dated 2026).

Tests used:
[1] = tested on: human DUSP6 expression in Capan-1 CDX tumors; experiment: PK/PD in Capan-1 xenograft tumors (DUSP6 qRT-PCR); assay type: in vivo, mouse
Experimental: Tumor-bearing animals were randomized and assigned into groups (n=3-10/group). Vehicle or RMC-7977 was administered via oral gavage daily at 10 mg/kg and animals were treated for 21-28 days. Studies were terminated early if tumor burden reached humane endpoint. Body weights were collected twice a week during the study. Means±s.e.m were plotted in the waterfall plots. For the single-dose pharmacokinetic/pharmacodynamic (PK/PD) study, mice were randomized and assigned into groups (n=3-6/dose/timepoint). A single dose of RMC-7977 was administered orally at 10 mg/kg, 25 mg/kg and 50 mg/kg. […]
(§1) Whole blood, tumor, colon and skin tissue concentrations of RMC-7977 were determined using liquid chromatography-tandem mass spectrometry (LC-MS/MS) methods. […] After thorough mixing and centrifugation, the supernatant was directly analyzed on a Sciex 6500+ triple quadrupole mass spectrometer equipped with an ACQUITY or Shimadzu UPLC system. […] RMC-7977 and IS (verapamil or terfenadine) were detected by positive electrospray ionization using multiple reaction monitoring (RMC-7977: m/z 865.4/706.4 or m/z 865.3/833.5; verapamil: m/z 455.2/164.9; terfenadine: m/z 472.3/436.4). The lower limit of quantification was 0.5 ng/mL or 2.0 ng/mL for blood, tumor, and other tissue. […]

[2] = Pharmacokinetics in KPF/FC mice (tumor and blood); assay type: in vivo, mouse
Experimental: Tumor formation in KPF/FC (KrasLSL.G12D/+; p53flox/flox; Pdx1-Cre) mice was monitored by bi-weekly palpations until the detection of a mass, which was then confirmed by ultrasound. Tumor-bearing mice were randomized and assigned into groups (n=3/dose/timepoint). Single dose of RMC-7977 was administered orally at 10 mg/kg, 25 mg/kg and 50 mg/kg. The same vehicle formulation was used for the control group. Whole blood and tissue (tumors and colons) were harvested at indicated time points preserved as previously described (See Xenograft studies section).
as §1, with “methods. Tissue samples were homogenized with a 5× or 10× volume of homogenization buffer (methanol/15 mM PBS (1:2; v:v) or 15 mM PBS with 10% methanol).” for “methods.”

[3] = tested on: human PDAC cell lines; experiment: Human cell line proliferation / viability assay; assay type: cell-based
Experimental: 19 PDAC cell lines were tested for sensitivity to RMC-7977 as part of a panel of human cancer cell lines of various histotypes screened at Crown Bioscience. These PDAC cell lines harbored KRASG12D, KRASG12V, KRASG12C, KRASQ61H, and BRAFV487_P492delinsA
mutations. To measure inhibition of cell proliferation, cells were cultured in methylcellulose and treated in triplicates with serial dilutions of RMC-7977 (top concentration of 1 μM) or DMSO dispensed by a Tecan D300e digital dispenser (Tecan Trading AG). Cells were incubated for 120 hours prior to measurement of ATP levels using CellTiter-Glo. Technical triplicates were run for each biological replicate and a total of three biological replicates was done for each cell line. CTG assay readouts were plotted as a function of log molar [inhibitor] and a 4-parameter sigmoidal concentration response model was fitted to the data. Mean±s.d. was plotted for each tested dilution.
PDAC cell lines harboring KRASWT or KRASQ61H were plated at 500-4,000 cells/well in clear, flat-bottomed 96-well plates (Corning) and grown for 24 h prior to adding indicated concentration of RMC-7977 or DMSO using the D300e digital dispenser (Tecan). Following treatment, cells were incubated for additional 3-5 days after which live cells were fluorescently labelled using Calcein AM (20-minute incubation at 500 nM, Thermo Fisher) and counted using the SpectraMax i3X multimode detection platform (Molecular Devices). Experiments were day 0 normalized using an independent culture plate. Growth percentage was calculated by normalizing drug-treated values to DMSO control, which was set to 100%. Four-parameter sigmoidal concentration response models were fitted to the data from 3 or more biological replicates. Mean±s.d. was plotted for each tested dilution.

CCn1c(-c2cc(N3CCN(C4CC4)CC3)cnc2[C@H](C)OC)c2c3cc(ccc31)-c1csc(n1)C[C@H](NC(=O)[C@H]1[C@@H]3COC[C@@H]31)C(=O)N1CCC[C@H](N1)C(=O)OCC(C)(C)C2 [RMC-7977]
EC50 ([1]; Mus musculus, CAPAN-1, read-out: EC50, inhibition of DUSP6 expression vs RMC-7977 concentration in tumors): 0.142 µM | duration of DUSP6 inhibition post-dose ([1]; single dose 10, 25 or 50 mg/kg): 24 to 48 h | exposure in blood and PDAC tumors compared with CDX tumor-bearing BALB/c mice ([2]; KPF/FC mice): lower | half-life (t1/2) in KPF/FC tumors compared to CDX tumors ([2]; KPF/FC tumors): shorter half-life | potency in three additional KRASQ61H PDAC lines ([3]; KRASQ61H (Pa02C, T3M-4, UM147), 5 days): low nanomolar potency | sensitivity of KRASWT cell lines and organoids ([3]; KRASWT cell lines and organoids): wider range of sensitivity | potency in concentration-response cell viability assays ([3]; most human PDAC cell lines, 5 days): low nanomolar potency | sensitivity in vitro ([3]; two human cell lines, one KRASQ61H, one KRASWT with BRAF ClassII mutation): lower sensitivity
